The values that follow come from paper PMC5681660, “Reduced hepatitis B and D viral entry using clinically applied drugs as novel inhibitors of the bile acid transporter NTCP” (Scientific Reports, 2017).

For this assay, the target named is T1, human NTCP (Homo sapiens, UniProt Q14973).
T1 sequence (Q14973 1-349): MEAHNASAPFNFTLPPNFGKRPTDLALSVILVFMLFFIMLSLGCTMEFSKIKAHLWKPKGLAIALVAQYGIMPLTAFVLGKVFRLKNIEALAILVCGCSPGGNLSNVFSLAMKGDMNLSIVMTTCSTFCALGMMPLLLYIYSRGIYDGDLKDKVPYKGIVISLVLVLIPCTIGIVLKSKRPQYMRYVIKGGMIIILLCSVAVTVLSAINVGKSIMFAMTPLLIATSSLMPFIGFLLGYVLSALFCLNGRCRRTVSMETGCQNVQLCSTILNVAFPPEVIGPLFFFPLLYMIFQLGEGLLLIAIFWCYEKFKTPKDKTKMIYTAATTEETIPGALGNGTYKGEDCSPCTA
The experiment in a line: Screening taurocholate uptake assay (96-well, [14C]taurocholate, 10 µM drug). Conditions: for B-score functional assay: screening taurocholate uptake, 10 µM drug.

The mark [1] stands for this setting: combined ranking of functional and binding screening assays.
Setting [2] is: ranking over the functional and the binding screening assay.

Counter-ions that a name gives are not always drawn.

Compound `OCCN1CCN(CCCN2c3ccccc3C=Cc3ccccc32)CC1` [Opipramol dihydrochloride] returned a B-score functional assay of -0.641. Also, the Ranking score under setting [1] turned out to be 627.796.
For the compound `CCCCCCC[N+](CC)(CC)CCCCc1ccc(Cl)cc1.Cc1ccc(S(=O)(=O)[O-])cc1` [Clofilium tosylate], the B-score functional assay is -2.506. The same compound returned a Ranking score under setting [2] of 143.363.
The compound `COc1ccc(-c2cc(=O)c3c(O)cc(O[C@@H]4O[C@H](CO[C@@H]5O[C@@H](C)[C@H](O)[C@@H](O)[C@H]5O)[C@@H](O)[C@H](O)[C@H]4O)cc3o2)cc1O` [Diosmin] registered a B-score functional assay of -1.635. This compound also gave a Ranking score under setting [2] of 207.123.
`NC(=O)OCCCc1ccccc1` [Phenprobamate] registered a B-score functional assay of 0.708. Further, the Ranking score under setting [1] was found to be 613.275.
On to `C[N+]1(C)CCOC(O)(c2ccc(-c3ccc(C4(O)C[N+](C)(C)CCO4)cc3)cc2)C1.[Br-].[Br-]` (centres unmarked) [Hemicholinium bromide], for which the B-score functional assay is listed as -3. The compound further came in with a Ranking score under setting [2] of 262.621.
In turn, `CC[N+](C)(CC)CCOC(=O)C1c2ccccc2Oc2ccccc21` [Methantheline bromide] showed a B-score functional assay of -0.025. Besides, the Ranking score under setting [1] was 536.517.
`CSc1nc2cc(Cl)c(Oc3cccc(Cl)c3Cl)cc2[nH]1` [Triclabendazole] yielded a B-score functional assay of -0.202. The Ranking score under setting [1] is given as 541.575.
Taken in the same sequence, the figures for `CC(C)NNC(=O)c1ccncc1.O=P(O)(O)O` [Iproniazide phosphate] were 0.714 and 542.692.
For the compound `CCCCC(CC)CNC(=N)NC(=N)NCCCCCCNC(=N)NC(=N)NCC(CC)CCCC` (centres unmarked) [Alexidine dihydrochloride], the B-score functional assay is recorded as -9.197. Under setting [2], the Ranking score is recorded as 6.481.
The like results for `CCC(=O)OCC(=O)[C@@]1(OC(=O)CC)[C@@H](C)C[C@H]2[C@@H]3CCC4=CC(=O)C=C[C@]4(C)[C@@]3(Cl)[C@@H](O)C[C@@]21C` [Beclomethasone dipropionate] were, in that order, -3.95 and 123.665.
The compound `Cc1[nH]cnc1CN1CCc2c(c3ccccc3n2C)C1=O` [Alosetron hydrochloride] displayed a B-score functional assay of -0.019. The Ranking score under setting [1] worked out at 562.783.
In turn, `CO[C@@]1(NC(=O)CSCC#N)C(=O)N2C(C(=O)O)=C(CSc3nnnn3C)CS[C@@H]21` [Cefmetazole sodium salt] came in with a B-score functional assay of -1.174. Under setting [2], this compound displayed a Ranking score of 266.713.
`[H]/N=C(/N)N/C(=N/[H])NCCc1ccccc1` [Phenformin hydrochloride] registered a B-score functional assay of 0.533. Under setting [2], this compound showed a Ranking score of 172.511.
On to `N[C@@H](C(=O)N[C@@H]1C(=O)N2C(C(=O)O)=C(Cl)CC[C@H]12)c1ccccc1` [Loracarbef], for which the B-score functional assay is given as -0.686. The Ranking score under setting [1] was determined as 611.882.
`CCCCOc1ccc(CC(=O)NO)cc1` [Bufexamac] had a B-score functional assay of -0.678. This compound also yielded a Ranking score under setting [2] of 265.556.
Taken in the same sequence, the figures for `Br.C[N+]1([O-])[C@@H]2CC(OC(=O)[C@H](CO)c3ccccc3)C[C@H]1[C@@H]1O[C@@H]12` (some centres unmarked) [Scopolamin-N-oxide hydrobromide] were -2.352 and 208.216.
Take `CCCCNc1c(C(=O)OCC)c(C)nc2c1cnn2CC.Cl` [Tracazolate hydrochloride]: the B-score functional assay is -1.912. The Ranking score under setting [2] is 238.155.
Taken in the same sequence, the figures for `Clc1ccccc1C(c1ccccc1)(c1ccccc1)n1ccnc1` [Clotrimazole] were -1.203 and 204.208.
The like results for `C[C@H](O)C(=O)Nc1c(I)c(C(=O)NC(CO)CO)c(I)c(C(=O)NC(CO)CO)c1I` [Iopamidol] were, in that order, -2.672 and 105.925.
The like results for `CN/C(=N/CCSCc1nc[nH]c1C)NC#N` [Cimetidine] were, in that order, -0.365 and 269.583.
Turning to `CCC(NC(C)C)C(O)c1ccc(O)c(O)c1.CS(=O)(=O)O` (centres unmarked) [Isoetharine mesylate salt], the B-score functional assay is -0.384. For the same compound, the Ranking score under setting [1] is 639.265.
Regarding `C[C@H](CCC(=O)O)[C@H]1CC[C@H]2[C@@H]3[C@H](O)C[C@@H]4C[C@H](O)CC[C@]4(C)[C@H]3CC[C@]12C` [Chenodiol], the B-score functional assay was -1.277. Under setting [2], this compound showed a Ranking score of 40.9878.
The like results for `Cl.OC1CCCCC1N1CCC(c2ccccc2)CC1` (stereo not drawn) [L(-)-vesamicol hydrochloride] were, in that order, -0.315 and 206.223.
The compound `CC(=O)N(O)CCCCCNC(=O)CCC(=O)N(O)CCCCCNC(=O)CCC(=O)N(O)CCCCCN` [Deferoxamine mesylate] displayed a B-score functional assay of -0.936. Under setting [2], this compound yielded a Ranking score of 277.171.
Compound `CCOC(=O)[N-]c1cn(N2CCOCC2)n[o+]1` [Molsidomine] yielded a B-score functional assay of 0.63. Also, the Ranking score under setting [1] came out at 467.403.
For the compound `C[C@H](Cc1cc2c(c(C(N)=O)c1)N(CCCO)CC2)NCCOc1ccccc1OCC(F)(F)F` [Silodosin], the B-score functional assay stood at 1.072. Moreover, the Ranking score under setting [1] was 510.413.
`CC=CC(=O)N(CC)c1ccccc1C` (mixture of isomers) [Crotamiton] had a B-score functional assay of -0.004. This compound also displayed a Ranking score under setting [2] of 248.379.
`CC(C)(C)NCC(O)c1ccccc1Cl` (centres unmarked) [Tulobuterol]: the Ranking score under setting [1] stood at 1214.72. This compound gave a B-score functional assay (B-score) of 2.873.
On to `Nc1cc(N2CCCCC2)nc(N)[n+]1[O-]` [Minoxidil], for which the B-score functional assay was -3.894. This compound had a Ranking score under setting [2] of 87.241.
As for `CC(C)NC[C@H](O)COc1cccc2ccccc12` [(S)-propranolol hydrochloride], the B-score functional assay is -0.168. Also, the Ranking score under setting [1] amounted to 599.166.
The like results for `Oc1c(I)cc(Cl)c2cccnc12` [Clioquinol] were, in that order, 0.225 and 627.53.
Compound `C[C@]12CC[C@@H]3c4ccc(O)cc4CC[C@H]3[C@@H]1CC[C@@H]2O` [Estradiol-17 beta] gave a B-score functional assay of -4.121. Under setting [2], this compound came in with a Ranking score of 76.8375.
With `CO[C@]12C[C@@H](COC(=O)c3cncc(Br)c3)CN(C)[C@@H]1Cc1cn(C)c3cccc2c13` [Nicergoline], the B-score functional assay was -0.256. Moreover, the Ranking score under setting [1] came to 615.79.
Take `CCN(CC)C(=S)SSC(=S)N(CC)CC` [Disulfiram]: the B-score functional assay is -4.037. Also, the Ranking score under setting [2] came out at 82.3772.
Regarding `Cl.Cl.OCCN1CCN(CC/C=C2/c3ccccc3Sc3ccc(Cl)cc32)CC1` [Zuclopenthixol dihydrochloride], the B-score functional assay is listed as -0.306. Moreover, the Ranking score under setting [2] turned out to be 243.28.
The like results for `C[C@@H]1CN(c2c(F)c(N)c3c(=O)c(C(=O)O)cn(C4CC4)c3c2F)C[C@H](C)N1` [Sparfloxacin] were, in that order, -2.411 and 231.849.
The like results for `CC(=O)Oc1ccc(C(c2ccc(OC(C)=O)cc2)c2ccccn2)cc1` [Bisacodyl] were, in that order, -3.114 and 63.
Consider `CCOC(=O)C1=C(C)NC(C)=C(C(=O)OC)C1c1cccc(Cl)c1Cl` (centres unmarked) [Felodipine], for which the B-score functional assay is on record as 1.073. The Ranking score under setting [1] is 465.188.
Compound `O=C(O)CCC(=O)Nc1ccc(S(=O)(=O)Nc2nccs2)cc1` [Succinylsulfathiazole] displayed a B-score functional assay of -0.075. In addition, the Ranking score under setting [2] came to 258.147.
The like results for `O=c1[nH]c(=O)n([C@H]2C[C@H](O)[C@@H](CO)O2)cc1I` [Idoxuridine] were, in that order, -4.488 and 91.1921.
Regarding `NC(=O)NC1NC(=O)NC1=O` (centres unmarked) [Allantoin], the B-score functional assay is on record as -2.549. Under setting [2], this compound showed a Ranking score of 134.967.
Consider `NC(CO)C(=O)NNCc1ccc(O)c(O)c1O` (centres unmarked) [Benserazide hydrochloride], for which the B-score functional assay is -0.402. In addition, the Ranking score under setting [1] is on record as 520.826.
The like results for `CC(CN(C)C)C(C)(O)Cc1ccc(Cl)cc1.Cl` (centres unmarked) [Clobutinol hydrochloride] were, in that order, -0.006 and 492.244.
Compound `COc1ccc(-c2ccc3cc(C(=O)O)ccc3c2)cc1C12CC3CC(CC(C3)C1)C2` [Adapalene] came in with a B-score functional assay of 0.202. The Ranking score under setting [1] was 620.435.
As to `CC(N)CCCC(C)(C)O` (centres unmarked) [Heptaminol hydrochloride], under setting [1], the Ranking score is reported as 1189.85. The compound also registered a B-score functional assay (B-score) of 2.111.
`CC(C)[C@H](N)C(=O)OCCOCn1cnc2c(=O)[nH]c(N)nc21` [Valacyclovir hydrochloride] returned a B-score functional assay of 0.32. The Ranking score under setting [1] is 518.986.
As for `CN1CCN(C(c2ccccc2)c2ccc(Cl)cc2)CC1` (centres unmarked) [Chlorcyclizine hydrochloride], under setting [1], the Ranking score is 1232.56. The compound also registered a B-score functional assay (B-score) of 4.014.
In the case of `CCCOc1ccc2nc(NC(=O)OC)[nH]c2c1` [Oxibendazol], the B-score functional assay is recorded as -0.538. This compound also gave a Ranking score under setting [2] of 199.274.
The compound `Oc1c(Cl)cc(Cl)c2cccnc12` [Chloroxine] returned a B-score functional assay of -0.339. In addition, under setting [1], the Ranking score worked out at 538.476.
